Results taken from patent US9732088B2, “C2-carbocyclic iminothiazine dioxides as BACE inhibitors, compositions, and their use” (Merck Sharp & Dohme Corp., priority 2014, dated 2017).

Tests used:
BACE-1 = BACE-1 (Homo sapiens (Human), UniProt P56817); conditions: data reported in US′109; read-out: BACE-1 Ki (nM) (ii) Data reported in US′109; cited from earlier work
CSF Aβ40 = conditions: cited from earlier work
HepG2 cells = assay: In Vitro Phospholipidosis Assay; format: cell-based; conditions: 20 μM, 24 hours, normalized to DMSO
From the text: [formula] Assay 7: In Vitro Phospholipidosis Assay
Drug-induced phospholipidosis (PL) is characterized by intracellular accumulation of phospholipids with lamellular bodies, and may result from impaired phospholipid metabolism in the lysosome (Anderson et al., 2006, FEBS Letter, 580, 5533-5540), and many compounds known to cause drug-induced PL are also associated with adverse drug reactions. Using a method described in the literature (Bhandari et al., 2008, Assay and Drug Dev. Tech., 6(3), 407-419), an in vitro cellular assay can provide data that can determine the PL potential of test compounds. In this assay, compounds that lower values for mean inclusion count of a fluorescent phospholipid (described below) versus control are associated with reduced potential for PL.
HepG2 cells were dispensed into 96-well collagen I coated plates at an initial density of 2.0×10^5 cells in 200 μL complete culturing medium (MEM Media w/Earle's Balanced Salt Solution supplemented with 10 IU penicillin, 10 μg/mL streptomycin, and 10% heat inactivated fetal bovine serum). Cells were incubated overnight at 37° C. with 5% CO2, 89% humidity prior to treatment.
A solution of fluorescently labeled phospholipid N-(7-nitrobenz-2-oxa-1,3-diazol-4-yl)-1,2-dihexadecanoyl-sn-glycero-3-phosphoethanolamine (NBD-PE) was prepared at a concentration of 10 mM in absolute ethanol. Dissolution of the NBD-PE was facilitated by sonication in a room temperature water bath for 30 minutes. NBD-PE medium was prepared by diluting NBD-PE stock to a final concentration of 50 μM in complete culturing medium, filtering (pore size, 0.22 μm) prior to use.
Compound treatment stocks were prepared in dimethyl sulfoxide at 500× final concentrations. Working treatment solutions were prepared by diluting compound stocks into NBD-PE medium with DMSO serving as the vehicle control. Treatment concentration was 20 μM. Amiodarone ((2-{4-[(2-butyl-1-benzofuran-3-yl)carbonyl]-2,6-diiodophenoxy}ethyl)diethylamine) served as the assay positive control at the same concentration. All treatments were tested in triplicate for 24 hours.
Following treatment, cultures were rinsed once with Hank's Balanced Salt Solution (HBSS) containing no phenol red. Cultures were then incubated for 30 minutes at 37° C. with […] Hoechst 33342 nuclear stain and […] cell tracker orange cytoplasm stain. After incubation, cells were rinsed once with HBSS and then fixed in 2% formalin solution.
Cultures were imaged using the IN Cell Analyzer 2000 imaging system. One set of images were acquired with the 4× objective using the appropriate Hoechst filter settings to acquire a full-well cell count. Another set of images were acquired to evaluate treatment-related phospholipidosis with the 20× objective.
Images were analyzed using custom algorithms created in the IN Cell Workstation software using NBD-PE inclusion count in the cell cytoplasm as and endpoint associated with phospholipidosis. Data were expressed as fold over control, normalized to the DMSO vehicle control response.

Chain of BACE-1 (P56817 46-501, species assumed): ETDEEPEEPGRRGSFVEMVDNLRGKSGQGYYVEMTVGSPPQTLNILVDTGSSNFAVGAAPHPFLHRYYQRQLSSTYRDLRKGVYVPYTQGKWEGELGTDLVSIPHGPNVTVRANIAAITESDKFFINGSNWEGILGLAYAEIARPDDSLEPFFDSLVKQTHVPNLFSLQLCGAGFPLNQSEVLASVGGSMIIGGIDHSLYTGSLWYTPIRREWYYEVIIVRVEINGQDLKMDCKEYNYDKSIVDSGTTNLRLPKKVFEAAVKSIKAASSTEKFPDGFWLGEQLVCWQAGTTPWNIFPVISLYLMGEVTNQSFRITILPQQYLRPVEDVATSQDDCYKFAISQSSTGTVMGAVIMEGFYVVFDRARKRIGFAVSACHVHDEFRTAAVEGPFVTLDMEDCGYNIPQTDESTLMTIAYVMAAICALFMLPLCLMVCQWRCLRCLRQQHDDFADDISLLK

COc1cnc2c(Nc3ccc(F)c([C@]4(C)CS(=O)(=O)C(C)(C)C(N)=N4)c3)nccc2n1 [Ex 47 of WO2014059185, reference compound]
Ki (BACE-1): 2.9 nM
Aβ reduction in vivo in rat (Δ% CSF Aβ40 @ 10 mpk) (ii) Data reported in US′109 (CSF Aβ40): −82%
In Vitro Phospholipidosis Assay: Mean NBD-PE Inclusion Count (Fold over control) (HepG2 cells): 13 Fold over control

C[C@@]1(c2nc(Nc3nccc4cc(C#N)cnc34)ncc2F)CS(=O)(=O)[C@@](C)(C2CC2)C(N)=N1 [Example 5, 8-({4-[(3R,6S)-6-cyclopropyl-5-imino-3,6-dimethyl-1,1-dioxidothiomorpholin-3-yl]-5-fluoropyrimidin-2-yl}amino)-1,7-naphthyridine-3-carbonitrile]
In Vitro Phospholipidosis Assay: Mean NBD-PE Inclusion Count (Fold over control) (HepG2 cells): 1.3 Fold over control

COc1cnc2c(Nc3cc([C@]4(C)CS(=O)(=O)[C@@](C)(C5CC5)C(N)=N4)c(F)cn3)nccc2c1 [Example 6, N-{4-[(3R,6S)-6-cyclopropyl-5-imino-3,6-dimethyl-1,1-dioxidothiomorpholin-3-yl]-5-fluoropyridin-2-yl}-3-methoxy-1,7-naphthyridin-8-amine]
In Vitro Phospholipidosis Assay: Mean NBD-PE Inclusion Count (Fold over control) (HepG2 cells): 3.1 Fold over control

COc1cnc2c(Nc3ccc(F)c([C@]4(C)CS(=O)(=O)[C@@](C)(C5CC5)C(N)=N4)c3)ncnc2n1 [Example 22, (2S,5R)-2-cyclopropyl-5-(2-fluoro-5-((7-methoxypteridin-4-yl)amino)phenyl)-3-imino-2,5-dimethylthiomorpholine 1,1-dioxide]
In Vitro Phospholipidosis Assay: Mean NBD-PE Inclusion Count (Fold over control) (HepG2 cells): 0.9 Fold over control
